Source: ChEMBL document CHEMBL1201862, “PubChem BioAssay data set” (2004)
Calls of active or inactive are those of the source.

What was measured:
[1] = molecular target: Neurotensin receptor type 1 (Homo sapiens, UniProt P30989); format: functional;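 also: Image-based confirmatory dose-response assay measuring agonist activity at NTR1; NTR1-expressing U2OS osteosarcoma cells imaged for beta-arrestin GFP spot formation; agonist potency where compounds increase beta-arrestin recruitment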
[2] = molecular target: T1, Microphthalmia-associated transcription factor (Homo sapiens, UniProt O75030); assay: TRPM1 promoter luciferase signal decrease, dose response, MITF inhibitor project, cell-based, SK-MEL-5, cherry-picked, set 3 (AID 493073); format: functional
T1 sequence (O75030 whole entry): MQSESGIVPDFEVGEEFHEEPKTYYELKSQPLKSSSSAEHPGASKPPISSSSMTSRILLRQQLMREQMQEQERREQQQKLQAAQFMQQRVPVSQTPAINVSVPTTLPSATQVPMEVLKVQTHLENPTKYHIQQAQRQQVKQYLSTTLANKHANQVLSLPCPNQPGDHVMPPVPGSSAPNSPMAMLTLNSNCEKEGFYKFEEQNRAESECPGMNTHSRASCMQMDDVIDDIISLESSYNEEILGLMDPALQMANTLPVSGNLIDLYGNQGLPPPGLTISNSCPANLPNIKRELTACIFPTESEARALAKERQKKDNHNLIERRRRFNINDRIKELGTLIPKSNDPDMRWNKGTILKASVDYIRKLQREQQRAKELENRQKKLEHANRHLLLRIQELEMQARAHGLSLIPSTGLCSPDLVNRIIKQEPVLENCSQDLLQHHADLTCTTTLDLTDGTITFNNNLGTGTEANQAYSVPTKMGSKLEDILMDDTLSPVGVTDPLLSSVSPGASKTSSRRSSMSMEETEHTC

[3] = molecular target: T2, Heat shock factor protein 1 (Mus musculus, UniProt P38532); assay: inhibition of MG132-induced HSE-luciferase signal, confirmation, cell-based, NIH3T3, luminescence, dose retest (AID 2382); format: functional;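 also: NIH3T3 fibroblasts with HSF1-driven luciferase reporter stressed by proteasome inhibitor MG132; luminescence from HSF1-driven luciferase expression after 8 hours of MG132 stress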
T2 sequence (P38532 whole entry): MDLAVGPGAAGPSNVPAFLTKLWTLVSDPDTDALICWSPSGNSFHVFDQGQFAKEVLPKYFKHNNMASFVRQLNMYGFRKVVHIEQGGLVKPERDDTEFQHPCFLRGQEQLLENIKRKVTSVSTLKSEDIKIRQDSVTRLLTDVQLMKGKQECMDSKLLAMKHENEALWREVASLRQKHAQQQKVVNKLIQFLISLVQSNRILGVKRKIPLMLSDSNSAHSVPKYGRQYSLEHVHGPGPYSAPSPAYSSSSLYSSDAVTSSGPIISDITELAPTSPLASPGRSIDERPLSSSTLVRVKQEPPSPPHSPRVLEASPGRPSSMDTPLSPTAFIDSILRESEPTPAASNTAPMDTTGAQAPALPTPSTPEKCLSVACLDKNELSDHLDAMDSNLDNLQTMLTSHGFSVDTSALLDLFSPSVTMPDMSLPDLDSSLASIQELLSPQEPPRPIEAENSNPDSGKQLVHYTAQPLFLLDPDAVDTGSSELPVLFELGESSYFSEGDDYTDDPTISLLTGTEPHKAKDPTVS

[4] = growth suppression of beta-catenin-knockout colon cells, dose response, cell-based, HCT116, human colon tumor (AID 1045); format: functional;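 also: HCT116 colon tumor cells with beta catenin knocked out; cells exposed to compound for 60 hours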
[5] = molecular target: T3, Sphingosine 1-phosphate receptor 4 (Homo sapiens, UniProt O95977); assay: Fluorescence dose response cell-based high throughput screening assay for antagonists of the Sphingosine 1-Phosphate Receptor 4 (S1P4). [Related pubchem assays: 1524 (Confirmation in triplicates.), 1510 (Primary screen.)]; format: functional
T3 sequence (O95977 whole entry): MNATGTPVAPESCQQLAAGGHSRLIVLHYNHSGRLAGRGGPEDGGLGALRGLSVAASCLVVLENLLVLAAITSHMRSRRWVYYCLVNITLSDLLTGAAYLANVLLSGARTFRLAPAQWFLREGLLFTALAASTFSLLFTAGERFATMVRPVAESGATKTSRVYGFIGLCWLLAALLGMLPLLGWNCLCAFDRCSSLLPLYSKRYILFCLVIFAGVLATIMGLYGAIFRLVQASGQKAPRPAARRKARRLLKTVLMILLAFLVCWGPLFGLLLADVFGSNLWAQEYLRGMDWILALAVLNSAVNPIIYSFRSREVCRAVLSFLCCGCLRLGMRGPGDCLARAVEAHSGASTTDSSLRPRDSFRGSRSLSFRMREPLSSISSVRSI

[6] = HepG2 cell cytotoxicity, dose response, cytotoxicity control for Shn3 inhibitor project, CellTiter-Glo, cherry-picked (AID 624134); format: functional, cell-based
[7] = molecular target: Sphingosine 1-phosphate receptor 1 (Homo sapiens, UniProt P21453); format: functional;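 also: Tango beta-arrestin reporter U2OS cells stimulated with S1P near its EC80; inhibitor potency meaning antagonism of receptor activation by the natural agonist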
[8] = growth suppression of PTEN-null colon cells, dose response, cell-based, HCT116 PTEN knockout (AID 1047); format: functional;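 also: HCT116 colon tumor cells with PTEN knocked out; cells exposed to compound for 60 hours before readout; potency for loss of cell viability measured by luminescence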
[9] = Shn3 3'UTR reporter inhibitors, dose response, cell-based, Clone20 osteoblasts, firefly luciferase, cherry-picked (AID 624132); format: functional;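 also: firefly luciferase luminescence from reporter carrying the Shn3 3'UTR in osteoblasts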
[10] = control 3'UTR Renilla luciferase suppression, dose response, counter-screen for Shn3 inhibitor project, cell-based, Clone20-Shn3RL, cherry-picked (AID 624133); format: functional
[11] = Cytotoxicity screening for potential Inhibitors of Bacterial Capsule Biogenesis. [Related pubchem assays (depositor defined):AID488970]; format: functional
[12] = molecular target: T4, Rac GTPase-activating protein 1 (Homo sapiens, UniProt Q9H0H5); assay: MgcRacGAP GTPase-activating activity inhibitors, confirmation, biochemical, ADP Hunter fluorescence, primary and confirmatory (AID 624330); format: functional
T4 sequence (Q9H0H5 whole entry): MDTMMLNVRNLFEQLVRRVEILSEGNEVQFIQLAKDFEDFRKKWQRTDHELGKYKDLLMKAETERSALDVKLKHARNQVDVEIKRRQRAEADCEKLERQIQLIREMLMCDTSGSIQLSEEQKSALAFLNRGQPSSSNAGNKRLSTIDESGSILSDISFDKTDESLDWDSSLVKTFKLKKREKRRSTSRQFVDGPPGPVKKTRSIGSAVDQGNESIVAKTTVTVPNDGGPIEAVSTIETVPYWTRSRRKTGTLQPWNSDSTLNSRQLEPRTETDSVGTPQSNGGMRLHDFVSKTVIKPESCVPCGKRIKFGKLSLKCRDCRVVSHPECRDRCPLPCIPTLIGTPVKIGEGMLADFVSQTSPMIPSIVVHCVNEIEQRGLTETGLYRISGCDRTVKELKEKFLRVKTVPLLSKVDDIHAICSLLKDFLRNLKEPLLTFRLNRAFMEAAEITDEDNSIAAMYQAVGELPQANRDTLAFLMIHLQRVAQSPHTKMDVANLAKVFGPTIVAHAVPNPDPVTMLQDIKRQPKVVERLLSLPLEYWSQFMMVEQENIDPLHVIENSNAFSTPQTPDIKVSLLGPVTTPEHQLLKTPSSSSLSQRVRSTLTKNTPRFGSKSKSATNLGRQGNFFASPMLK

[13] = molecular target: T5, Ubiquitin-conjugating enzyme E2 N (Homo sapiens, UniProt P61088); format: functional
T5 sequence (P61088 whole entry): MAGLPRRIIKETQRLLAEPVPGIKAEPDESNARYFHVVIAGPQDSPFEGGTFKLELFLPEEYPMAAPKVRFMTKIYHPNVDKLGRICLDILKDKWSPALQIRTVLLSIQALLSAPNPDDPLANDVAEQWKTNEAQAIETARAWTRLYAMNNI

[14] = C. albicans growth with fluconazole, confirmation, fluorescence, retest (AID 2467); format: functional, cell-based
[15] = molecular target: T6, Endoribonuclease toxin MazF (Escherichia coli K-12, UniProt P0AE70); assay: fluorescent RNA oligo signal without MazF, dose response, counter-screen for MazEF activator project, biochemical, fluorescence, single-stranded RNase substrate (AID 588502); format: functional
T6 sequence (P0AE70 whole entry): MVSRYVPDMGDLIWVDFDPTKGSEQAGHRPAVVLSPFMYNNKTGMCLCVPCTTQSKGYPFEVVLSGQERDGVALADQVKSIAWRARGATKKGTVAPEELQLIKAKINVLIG

Escherichia coli = assay: microbe, parasite or virus in culture
[16] = system: Streptococcus sp. 'group A'; assay: growth inhibition of control SK(-) GAS strain, dose response, counter-screen for streptokinase expression inhibitor project, luminescence, kanamycin, BacTiterGlo, confirmation (AID 1900); format: functional, organism-based
CAAX prenyl protease 2 = molecular target: T7, CAAX prenyl protease 2 (Homo sapiens, UniProt Q9Y256); assay: human Rce1 protease inhibitors, dose response, biochemical, yeast membranes, quenched-peptide fluorescence, cherry-pick (AID 588849)
T7 sequence (Q9Y256 whole entry): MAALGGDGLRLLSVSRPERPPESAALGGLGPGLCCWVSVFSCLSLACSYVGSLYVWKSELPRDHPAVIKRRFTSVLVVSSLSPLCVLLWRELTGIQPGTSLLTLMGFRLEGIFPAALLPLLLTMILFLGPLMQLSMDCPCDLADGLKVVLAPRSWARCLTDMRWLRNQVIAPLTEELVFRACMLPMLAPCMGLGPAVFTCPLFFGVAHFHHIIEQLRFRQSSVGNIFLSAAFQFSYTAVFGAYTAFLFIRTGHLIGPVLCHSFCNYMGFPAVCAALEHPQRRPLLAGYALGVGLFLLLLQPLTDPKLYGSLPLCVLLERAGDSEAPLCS

Streptokinase A = molecular target: T8, Streptokinase A (Streptococcus pyogenes serotype M1, UniProt P10520); assay: S. pyogenes streptokinase expression inhibitors, potency, dose response, plasminogen activation absorbance, OD405 (AID 1914); format: functional, Streptococcus pyogenes M1 GAS;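 also: secreted streptokinase activity via plasminogen activation per viability signal from cell pellet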
T8 sequence (P10520 whole entry): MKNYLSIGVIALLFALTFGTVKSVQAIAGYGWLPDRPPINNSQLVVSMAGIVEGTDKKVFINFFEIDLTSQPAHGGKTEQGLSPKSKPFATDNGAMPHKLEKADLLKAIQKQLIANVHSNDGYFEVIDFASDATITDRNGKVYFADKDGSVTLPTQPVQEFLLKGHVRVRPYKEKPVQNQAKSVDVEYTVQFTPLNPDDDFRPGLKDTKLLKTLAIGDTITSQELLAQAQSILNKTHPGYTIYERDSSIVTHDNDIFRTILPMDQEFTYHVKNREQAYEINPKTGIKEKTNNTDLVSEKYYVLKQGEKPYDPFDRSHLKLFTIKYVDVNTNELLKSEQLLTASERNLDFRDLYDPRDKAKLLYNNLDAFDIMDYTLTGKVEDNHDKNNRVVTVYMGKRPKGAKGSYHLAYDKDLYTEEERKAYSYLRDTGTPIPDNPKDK

Bcl-2-related protein A1 = molecular target: T9, Bcl-2-related protein A1 (Mus musculus, UniProt Q07440); format: functional;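 also: confirmatory dose–response counterscreen on Bfl-1, used to check hits from a UBC13 polyubiquitin inhibitor campaign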
T9 sequence (Q07440 whole entry): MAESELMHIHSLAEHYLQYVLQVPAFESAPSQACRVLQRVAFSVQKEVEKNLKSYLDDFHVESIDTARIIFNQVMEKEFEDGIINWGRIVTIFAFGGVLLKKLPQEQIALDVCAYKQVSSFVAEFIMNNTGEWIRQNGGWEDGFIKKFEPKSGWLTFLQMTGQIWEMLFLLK

Streptococcus = assay: Group A Streptococcus viability loss, dose response, counter-screen for streptokinase expression inhibitor project, luminescence, BacTiterGlo (AID 1915); format: functional, organism-based;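 also: potency for reduction of bacterial viability or growth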
Trypsin = Trypsin (Sus scrofa, UniProt P00761); assay: porcine trypsin inhibitors, dose response, selectivity assay for Rce1 protease inhibitor project, biochemical, quenched peptide fluorescence, cherry-pick (AID 488789)
[17] = NIH-3T3 fibroblast cytotoxicity, dose response, cytotoxicity control, cell-based, fluorescence, Alamar Blue, secondary assay (AID 2327); format: functional;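 also: NIH-3T3 mouse fibroblasts cultured with fluconazole at 8 µg/mL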
[18] = molecular target: T6, Endoribonuclease toxin MazF; assay: MazF toxin RNase activators, dose response, biochemical, fluorescence, single-stranded RNA substrate, uHTS hits (AID 588481); format: functional
[19] = A cytotoxicity screen of small molecule inhibitors of the PhoP region in Salmonella typhi identified in the primary screen. [Related pubchem assays: 1850, 1864, 1985 ]; format: functional
[20] = molecular target: T5, Ubiquitin-conjugating enzyme E2 N; format: functional; remark: listed apart in the source
[21] = molecular target: T10, DNA repair protein RAD52 homolog (Homo sapiens, UniProt P43351); format: functional, biochemical
T10 sequence (P43351 whole entry): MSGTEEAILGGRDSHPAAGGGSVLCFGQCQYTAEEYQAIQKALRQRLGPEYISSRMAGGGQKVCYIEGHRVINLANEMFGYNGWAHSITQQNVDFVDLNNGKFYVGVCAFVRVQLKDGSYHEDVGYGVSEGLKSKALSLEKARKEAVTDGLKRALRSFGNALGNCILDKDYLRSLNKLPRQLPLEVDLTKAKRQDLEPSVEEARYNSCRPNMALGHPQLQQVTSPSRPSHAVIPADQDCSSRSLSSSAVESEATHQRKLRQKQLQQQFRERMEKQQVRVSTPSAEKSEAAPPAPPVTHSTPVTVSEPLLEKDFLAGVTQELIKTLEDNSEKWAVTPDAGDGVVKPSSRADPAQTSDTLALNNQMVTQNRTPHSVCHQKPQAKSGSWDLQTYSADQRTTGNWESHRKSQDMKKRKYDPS

Protein Rev = Protein Rev (Human immunodeficiency virus type 1 group M subtype B (isolate WMJ22)(HIV-1), UniProt P05866); assay: HIV-1 Rev-RRE RNA binding disruptors, dose response, biochemical, protein-RNA interaction (AID 842); parameters: species or system Human immunodeficiency virus 1
Cytochrome P450 2C9 = Cytochrome P450 2C9 (Homo sapiens, UniProt P11712); details: Potency
Cytochrome P450 2C9, sequence (P11712 whole entry): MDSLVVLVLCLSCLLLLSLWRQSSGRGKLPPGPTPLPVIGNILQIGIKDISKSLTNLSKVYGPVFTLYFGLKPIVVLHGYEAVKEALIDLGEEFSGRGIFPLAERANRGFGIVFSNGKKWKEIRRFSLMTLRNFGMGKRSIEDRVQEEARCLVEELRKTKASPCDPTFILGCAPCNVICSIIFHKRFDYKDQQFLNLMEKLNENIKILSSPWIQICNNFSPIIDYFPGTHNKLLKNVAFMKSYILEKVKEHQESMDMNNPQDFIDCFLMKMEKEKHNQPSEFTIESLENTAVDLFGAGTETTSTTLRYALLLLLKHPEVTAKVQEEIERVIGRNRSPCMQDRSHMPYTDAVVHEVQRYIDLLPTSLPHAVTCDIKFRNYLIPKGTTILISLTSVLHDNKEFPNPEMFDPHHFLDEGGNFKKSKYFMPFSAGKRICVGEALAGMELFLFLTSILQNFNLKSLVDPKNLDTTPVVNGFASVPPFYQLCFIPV

Neurotensin receptor type 1, sequence (P30989 whole entry): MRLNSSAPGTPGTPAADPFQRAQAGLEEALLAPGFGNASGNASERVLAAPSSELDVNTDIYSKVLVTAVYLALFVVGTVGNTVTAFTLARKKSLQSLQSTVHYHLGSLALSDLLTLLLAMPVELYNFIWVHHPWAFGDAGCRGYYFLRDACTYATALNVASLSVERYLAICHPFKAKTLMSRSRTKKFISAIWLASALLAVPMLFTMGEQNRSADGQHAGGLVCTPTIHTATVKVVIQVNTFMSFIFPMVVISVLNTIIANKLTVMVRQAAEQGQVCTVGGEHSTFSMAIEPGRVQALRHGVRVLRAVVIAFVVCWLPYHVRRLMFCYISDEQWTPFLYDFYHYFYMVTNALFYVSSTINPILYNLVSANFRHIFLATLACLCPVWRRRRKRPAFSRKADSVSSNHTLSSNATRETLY
Protein Rev, sequence (P05866 whole entry): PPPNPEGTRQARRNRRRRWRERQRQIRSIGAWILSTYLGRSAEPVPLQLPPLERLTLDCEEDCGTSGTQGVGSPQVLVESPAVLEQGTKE
Sphingosine 1-phosphate receptor 1, sequence (P21453 whole entry): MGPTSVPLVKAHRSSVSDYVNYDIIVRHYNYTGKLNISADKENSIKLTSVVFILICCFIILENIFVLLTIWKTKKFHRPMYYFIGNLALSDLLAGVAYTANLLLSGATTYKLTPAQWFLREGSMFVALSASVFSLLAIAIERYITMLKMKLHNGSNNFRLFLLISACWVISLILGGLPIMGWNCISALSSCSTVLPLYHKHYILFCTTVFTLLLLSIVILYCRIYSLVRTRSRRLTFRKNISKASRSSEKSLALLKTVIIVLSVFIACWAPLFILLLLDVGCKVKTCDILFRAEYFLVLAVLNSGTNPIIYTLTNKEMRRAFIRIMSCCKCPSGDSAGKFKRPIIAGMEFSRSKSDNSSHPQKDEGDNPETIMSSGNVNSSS
Trypsin, sequence (P00761 whole entry): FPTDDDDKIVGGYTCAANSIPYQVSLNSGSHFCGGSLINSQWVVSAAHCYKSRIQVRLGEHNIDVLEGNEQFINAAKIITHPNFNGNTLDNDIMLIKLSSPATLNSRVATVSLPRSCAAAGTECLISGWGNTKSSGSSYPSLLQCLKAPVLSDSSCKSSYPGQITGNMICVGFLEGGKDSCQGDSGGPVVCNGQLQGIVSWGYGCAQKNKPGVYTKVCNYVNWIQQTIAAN

COc1ccc(Oc2cc(NC(=O)c3nn(C)cc3[N+](=O)[O-])cc([N+](=O)[O-])c2)cc1
inconclusive: EC50 [3] 8.9 µM
17.4 µM (not active): IC50 [7]
active: EC50 [1] 8.91 µM | AC50 [2] 8.94 µM | EC50 [4] 0.17 µM | IC50 [5] 1.08 µM | AC50 [6] 21.1 µM | EC50 [8] 0.219 µM | AC50 [9] 0.813 µM | AC50 [10] 5.01 µM

N=C(N)c1ccc(/C=C/c2ccc(C(=N)N)cc2O)cc1
active: CC50 [11] > 100 µM | IC50 [12] 39 µM | IC50 [13] 2.8 µM | EC50 [14] 0.529 µM | AC50 (Escherichia coli) 37.7 µM | EC50 [16] 1.43 µM | EC50 (Streptokinase A) 20 µM | AC50 (Trypsin) 3.15 µM | EC50 [18] 4.77 µM | EC50 [19] > 50 µM | IC50 [20] 3.61 µM | AC50 [21] 0.708 µM
> 150 µM (not active): EC50 (Streptococcus)
inactive: EC50 [15] > 99 µM | AC50 (CAAX prenyl protease 2) > 100 µM | IC50 (Bcl-2-related protein A1) > 20 µM | EC50 [17] > 150 µM

CC(C)CN=c1cc(-c2ccccc2)oc2ccc(Cl)cc12
> 79.4 µM (not active): IC50 (Protein Rev)

CC[C@H](C)C(=O)O[C@@H]1CCC=C2C=C[C@H](C)[C@@H](CC[C@H]3C[C@@H](O)CC(=O)O3)[C@H]21
inconclusive: AC50 (Cytochrome P450 2C9) 39.8 µM
